Measurements from patent US6423508B1, “Polynucleotide sequences of human EDG-1c” (SmithKline Beecham Corporation, priority 1998, dated 2002).
pEC50: −log10 of the molar value. Like-named read-outs stand apart in the source and are kept apart here.

Columns and labels:
[1] = test system: endogenous receptors of RBL 2H3 cells; assay: Responses of control ligands of endogenous receptors in RBL 2H3 EDG-1c cells (calcium mobilization, FLIPR); type: cell-based; conditions: FIG. 8
Description: (§1) A number of cell lines were examined to identify one that would not respond to S-1-P through an endogenous receptor. […] Stable cell lines of the EDG1-c receptor were prepared in RBL 2H3 cell line. The expression of functionally active clones were followed using Fluorescent imaging plate reader (FLIPR).

human EDG-1c receptor [2] = target: T1, human EDG-1c receptor (Homo sapiens, UniProt P21453); assay: S-1-P-induced FUS1-LacZ reporter gene expression in yeast expressing human EDG-1c; type: cell-based; conditions: yeast FUS1-LacZ cells expressing human EDG-1c, FIG. 5
T1 construct: expressed in transfected cells
T1 sequence (P21453 whole entry): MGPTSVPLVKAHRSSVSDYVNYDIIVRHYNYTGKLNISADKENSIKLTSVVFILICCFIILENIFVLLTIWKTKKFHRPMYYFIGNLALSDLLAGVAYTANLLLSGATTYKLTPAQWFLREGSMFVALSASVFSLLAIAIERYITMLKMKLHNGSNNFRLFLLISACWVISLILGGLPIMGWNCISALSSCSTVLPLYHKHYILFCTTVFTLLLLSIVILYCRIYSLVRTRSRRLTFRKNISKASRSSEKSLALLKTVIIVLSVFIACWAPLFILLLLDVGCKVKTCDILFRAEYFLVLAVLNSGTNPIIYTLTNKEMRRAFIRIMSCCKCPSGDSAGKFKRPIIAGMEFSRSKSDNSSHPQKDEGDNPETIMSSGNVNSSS
Description: The yeast strain(s) used contain mutations in genes in the pheromone response pathway, e.g., (i) deletion of the STE2 or STE3 gene encoding the endogenous G-protein coupled pheromone receptors; (ii) deletion of the FAR1 gene encoding a protein that normally associates with cyclin-dependent kinases leading to cell cycle arrest; and (iii) construction of reporter genes fused to the FUS1 gene promoter (where FUS1 encodes a membrane-anchored glycoprotein required for cell fusion). The downstream reporter (FUS1-LacZ) permits a colorimetric or fluorimetric readout in response to ligand.

[3] = test system: untransfected HEK 293 cells (endogenous receptors that respond to S-1-P); assay: S-1-P-induced Ca2+ mobilization in untransfected HEK 293 cells (FLIPR); type: cell-based; conditions: FIG. 3
Description: The data were generated with the 96 well Fluorescent Imaging Plate Reader (FLIPR). Each point is the mean of 6-8 wells read on FLIPR.

[4] = test system: rat neonatal cardiomyocytes; assay: Cellular hypertrophy in rat neonatal cardiomyocytes in culture; type: cell-based
Description: […] was tested in its ability to induce hypertrophy in an in vitro neonatal cardiomyocyte model. The assessment of cardiomyocyte hypertrophy is measured using four different parameters: protein synthesis (tritiated phenylalanine incorporation and protein content increase), tritiated thymidine incorporation (evaluation of fibroblast contamination), Brain Natriuretic Peptide (BNP) release and morphological parameters. Phenylephrine (PE) at 100 μM concentration is used as internal control experiments. […] Cardiomyocytes in culture display features of myocyte hypertrophy observed in vivo, such as changes in morphology (vizualised using light microscopy after staining with crystal violet), protein content, and pattern of gene expression.

[5] = test system: isolated perfused rabbit heart; assay: Functional effects on isolated perfused rabbit heart; conditions: 10 nM
Description: The functional effects of […] have been examined in isolated perfused rabbit heart. […] An increased in AoP (aortic pressure), reflecting a vasoconstrictor effect was observed, i.e., about 30% of increase at 5 min of treatment compared to the vehicle (methanol 0.001%).

human EDG-1c receptor [6] = target: T1, human EDG-1c receptor; assay: Calcium mobilization in RBL 2H3 cells stably transfected with human EDG-1c receptor (FLIPR); type: cell-based
Description: as §1

Nc1ncnc2c1ncn2[C@@H]1O[C@H](COP(=O)(O)OP(=O)(O)OP(=O)(O)O)[C@@H](O)[C@H]1O [ATP]
EC50 of endogenous-receptor ligands [1]: expected EC50 values

C[C@@H]1O[C@H](C[N+](C)(C)C)C[C@H]1O [Muscarine]
response of RBL 2H3 EDG-1c cells to control ligand [1]: did not respond

CCCCCCCCCCCCC/C=C/[C@@H](O)[C@@H](N)COP(=O)(O)O [S-1-P, sphingosine 1-phosphate]
expression of beta-galactosidase (FUS1-LacZ reporter response) (human EDG-1c receptor [2]): receptor-dependent response | calcium mobilization response [3]: robust calcium mobilization response | cellular hypertrophy (increase of protein content, phenylalanine incorporation and BNP secretion to control cell values) ([4]; 10 nM, 100 nM and 1 μM (n=3), each concentration): induced a cellular hypertrophy | increase of phenylalanine incorporation to the control cell values ([4]; 1 μM (n=3)): 30.1%±9.2 | increase of protein content to the control cell values ([4]; 1 μM (n=3)): 35.6%±6.3 | increase of thymidine incorporation to the control cell values ([4]; 1 μM (n=3)): 11.4%±1.8 | BNP secretion vs. control ([4]; S-1-P treated cardiomyocyte vs. control): four fold higher | LVEDP (left ventricular end-diastolic pressure) [5]: marked reduction | increase in AoP (aortic pressure), vasoconstrictor effect ([5]; at 5 min of treatment, compared to the vehicle (methanol 0.001%)): about 30% | inotropic effect (pressure value) ([5]; at 10 min of drug administration, controls 96.09±6 mm Hg): 84.7±6.3 mm Hg | pEC50 (human EDG-1c receptor [6]; several RBL 2H3 EDG1-c clones, FIG. 7, read-out: EC50, calcium mobilization, best clones): 7.70 to 8.00

CCCCCCCCCCCCCCCC(O)C(N)COP(=O)(O)O (stereo not drawn) [dihydro-S-1-P, di-hydro sphingosine 1-phosphate]
pEC50 (human EDG-1c receptor [6]): 7.70 to 8.00

CCCCC/C=C\C\C=C/C=C/C=C/[C@@H](SC[C@H](N)C(=O)NCC(=O)O)[C@@H](O)CCCC(=O)O [leukotriene D4]
EC50 of endogenous-receptor ligands [1]: expected EC50 values

lysophosphatidic acid
calcium mobilization response of RBL 2H3 EDG-1c cells (human EDG-1c receptor [6]; best clones, FIG. 8): did not respond

sphingosine phosphorylcholine
EC50, calcium mobilization through the EDG1-c receptor (in words) (human EDG-1c receptor [6]; best clones, FIG. 8): in the uM range | calcium mobilization response of RBL 2H3 EDG-1c cells (human EDG-1c receptor [6]; best clones, FIG. 8): weakly
